Reference: patent US20250213665A1, “METHODS FOR INHIBITING TRAINED IMMUNITY WITH NANOBIOLOGIC COMPOSITIONS” (Icahn School of Medicine at Mount Sinai, priority 2017, published 2025)

Experiment: Recovery and hydrolysis of the (pro-)drugs in nanobiologics
Type: physicochemical
Conditions: 4° C. in PBS
Protocol: From 10 mg/ml stock solutions in chloroform, 1-palmitoyl-2-oleoyl-sn-glycero-3-phosphocholine (POPC, 250 μL), 1-palmitoyl-2-hydroxy-sn-glycero-3-phosphocholine (PHPC, 65 μL), cholesterol (15 μL), tricaprylin (1000 μL) and (pro-)drug (65 μL), were combined in a 20 ml vial and dried under vacuum. The resulting film was redissolved in a acetonitrile:methanol mixture (95%: 5%, 3 mL total volume). Separately, a solution of ApoA-I protein in PBS (0.1 mg/ml) was prepared. Using a microfluidic set-up, both solutions were simultaneously injected into a herringbone mixer, with a flow rate of 0.75 ml/min for the lipid solution and a rate of 6 ml/min for the ApoA-I solution. The obtained solution was concentrated by centrifugal filtration using a […] Vivaspin tube at 4000 rpm to obtain a volume of 5 mL. […]
(Pro-)drug recovery and hydrolysis were determined using the following procedure: an aliquot (200 μL) of the particle solution was dried under vacuum, acetonitrile (600 μL) was added and the suspension was sonicated for 20 minutes. The suspension was centrifuged to precipitate any solids and the remaining solution was analyzed using HPLC; except for the malonate derivatives which were analyzed using SFC-MS, and Dimethylmalonate which was analyzed by GC-MS.

CCCCCCCCCCCCCCCCCC(=O)O[C@@H]1CC[C@@H](C[C@@H](C)[C@@H]2CC(=O)[C@H](C)/C=C(\C)[C@@H](O)[C@@H](OC)C(=O)[C@H](C)C[C@H](C)/C=C/C=C/C=C(\C)[C@@H](OC)C[C@@H]3CC[C@@H](C)[C@@](O)(O3)C(=O)C(=O)N3CCCC[C@H]3C(=O)O2)C[C@H]1OC [Cis-Rapamycin]
hydrolysis of the (pro-)drugs in the nanobiologics over time: hydrolysis was observed
